From publication PMC4872749, “EM23, a natural sesquiterpene lactone, targets thioredoxin reductase to activate JNK and cell death pathways in human cervical cancer cells” (Oncotarget, 2016)

Biological target: T1, thioredoxin reductase (TrxR) (Sus scrofa, UniProt Q9MYY8)
T1 construct: gene TXNRD1; TrxR purified from porcine brains
T1 sequence (Q9MYY8 1-499): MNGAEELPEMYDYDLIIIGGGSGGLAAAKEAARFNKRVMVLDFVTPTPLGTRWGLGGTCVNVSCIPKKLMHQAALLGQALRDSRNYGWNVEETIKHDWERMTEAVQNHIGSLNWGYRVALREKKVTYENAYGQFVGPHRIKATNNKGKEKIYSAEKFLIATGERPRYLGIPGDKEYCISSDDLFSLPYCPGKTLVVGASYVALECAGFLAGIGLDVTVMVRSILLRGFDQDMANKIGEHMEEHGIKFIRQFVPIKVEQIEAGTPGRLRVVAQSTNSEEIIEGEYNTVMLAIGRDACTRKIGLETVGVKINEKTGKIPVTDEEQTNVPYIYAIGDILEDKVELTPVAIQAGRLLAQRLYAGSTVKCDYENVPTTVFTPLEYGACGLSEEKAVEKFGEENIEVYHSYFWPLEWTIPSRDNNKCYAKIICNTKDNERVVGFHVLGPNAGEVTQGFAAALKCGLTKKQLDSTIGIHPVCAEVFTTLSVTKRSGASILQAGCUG
Assay: DTNB reduction assay with purified NADPH-reduced TrxR; supported by BIAM labeling and TOF LC/MS of C-terminal tetrapeptide adduct
Format: biochemical

IC50: 7.8 µM
Structure (SMILES): C=C(C)C(=O)OC1CC(C)=CC2(OC)C=C(C)C(O2)C2OC(=O)C(=C)C12 (stereo not shown) [EM23]
